One compound from patent US20030091615A1, “Use of betaine to enhance exercise performance” (priority 2001, published 2003) can be followed below.

SMILES strings stand for the structures.

The experiment has as its system male subjects. Kind of experiment: Randomized placebo-controlled double blind exercise test: rehydration solution, 75 min treadmill run in 30° C. heat, then sprint to volitional exhaustion. Format: in vivo, human. From the text: Ten male subjects were selected to participate in four experimental tests, described below. The study design was a randomized placebo-controlled double blind test. These tests were identical, except that a different rehydration solution was consumed during each session. The rehydration solutions are:
(a) Non-nutritive KOOL-AID®;
(b) Non-nutritive KOOL-AID® and betaine (5 g/l);
(d) GATORADE® and betaine (5 g/l).
The order of treatment for each subject was randomized.
The following measurements were taken throughout each of the four experimental tests:
1) Hydration variables were measured each day, including urine specific gravity and color, body weight, plasma osmolity.
2) Blood variables were sampled during each trial, including, hematocrit, hemoglobin, osmolality, glucose, lactate.
3) Physiological variables were measured during each trial, such as time to exhaustion (duration of final sprint), heart rate, blood pressure, oxygen consumption, minute ventilation, mean weighted skin temperature, rectal temperature, whole body sweat rate.
4) Perceptual variables were recorded, such as rating of perceived exertion (Borg scale) during the exercise test, thermal stress during the exercise test, thirst sensation during the exercise test.
Each subject participated in four experimental tests, performed at the same time of day for each subject, using the same posture at each stage of testing. Experimental tests were randomized. Trials were conducted in an environmental chamber controlled at 30° C.
When they arrived at the test center at 7:00 a.m., the body weight was measured, a blood sample was taken and the specific gravity of the urine was measured. In general, the subjects were mildly dehydrated, losing approximately 1% body weight. […] Subsequently, thereto, they then entered an environmental chamber which was maintained at a temperature of 30° C. and they stood for thirty minutes to effect fluid and thermal equilibration.
Various measurements were taken of each subject including blood pressure, urine specific gravity, body weight, blood pressure, plasma, osmolality and a blood sample when in the environmental chamber prior to the test. Each then performed cycling and walking exercise for 60-90 minutes at 50-55% VO2max so that they each lost about 3% of body weight.
At about 9:30 a.m., they consumed one of the above fluids.
The total volume was ingested in five equal portions over 25 minutes. (This increased the body weight change to a −1.5% level). They each stood an additional twenty minutes to allow gastric emptying. Then they began a treadmill run for 75 minutes at 65% VO2max. They finished the exercise in the heat by a sprinting to volitional exhaustion at a treadmill pace that elicits 90% VO2max. At the conclusion, they stood in the environmental chamber for additional measurements during a 15 minute recovery period. They left the chamber, then ate a meal and drank fluids.
The test was repeated for each person three more times, except each time they ingested a different one of the fluids so that at the end of the test, each subject had ingested each one of the four fluids. Subjects were instructed to match the diet they ate before the initial experiment, during the three subsequent trials. […]

As for `C[N+](C)(C)CC(=O)[O-]` [betaine, trimethylglycine], where the note is “GATORADE trials, betaine 5 g/l”, the “increased plasma lactate levels 15 minutes after the sprint” value is 17% and the “increased plasma lactate levels immediately after the sprint” value came out at 10%. Moreover, under “GATORADE trials, betaine 5 g/l vs GATORADE alone”, the “greater oxygen uptake (aerobic metabolism) while sprinting” value amounted to 6%. Under “KOOL-AID trials, betaine 5 g/l”, the “increased plasma lactate levels after the sprint” value was “This effect was not seen”. The “greater oxygen uptake (aerobic metabolism) while sprinting” value (KOOL-AID trials, betaine 5 g/l vs KOOL-AID alone) is reported as “This effect was not seen”.
